Laboratory results reported in patent US20140342392A1, “OPTIMIZED INSECT-BASED EX VIVO MODEL FOR TESTING BLOOD-BRAIN BARRIER PENETRATION AND METHOD FOR EXPOSING INSECT BRAIN TO CHEMICAL COMPOUNDS” (ENTOMOPHARM ApS, priority 2011, published 2014).

Test system: locust brain (blood-brain barrier)
Settings: co-treatment with verapamil, brain removed from the cuticula, also after removal of the neural lamella
Description: 1. […] The insects may be obtained from local suppliers or bred in house. The grasshoppers were reared under crowded conditions at 28° C. and a 12:12 dark:light photocycle and fed fresh grass and bran. Before experiments the grasshoppers were fed ecologically cultivated wheat for two weeks. Animals used are adult males (in some experiments females) between two to four weeks after adult emergence. […] After various times of exposure the preparation is washed in saline and the brain is dissected under microscope with fine forceps. The neural lamella surrounding the brain is removed in saline and the brain is then […] in saline, centrifuged and the supernatant frozen until analyses. Drug concentration is analysed by HPLC, LC/MSMS or other methods.

C=C[C@H]1C[N@@]2CC[C@H]1C[C@@H]2[C@@H](O)c1ccnc2ccc(OC)cc12 [quinidine]
brain concentration with versus without Pgp inhibitor (FIG. 2): higher after co-treatment with the Pgp inhibitor verapamil
